Values of other authors as cited in patent US10543230B2, “Redox signaling gel formulation” (RDG Holdings, Inc., priority 2013, dated 2020).

Conditions: pH around 7.0, room temperature

| Compound | half-life |
| --- | --- |
| O=[O+][O-] [dissolved ozone (O3), ozone] | about 20 min |
| [O]O [superoxide free radicals (O2*-), superoxide] | 10's of milliseconds |
